The test system of series [1] is intracranial pressure (cerebrospinal fluid pressure in the cisterna magna). Nature of the series: Effect of i.v. injection of test compounds on intracranial pressure in rats (Experiment 1). To be noted: for Change in intracranial pressure (%), time after administration of test compound 40 minutes / Change in intracranial pressure (%), time after administration of test compound 60 minutes / Change in intracranial pressure (%), time after administration of test compound 120 minutes / Change in intracranial pressure (%), time after administration of test compound 180 minutes: i.v. infusion 0.2 ml/kg/minute for 20 minutes; for Change in intracranial pressure (%), time after administration of test compound 40 minutes: baseline 100, control 106.4; for Change in intracranial pressure (%), time after administration of test compound 60 minutes: baseline 100, control 107.5; for Change in intracranial pressure (%), time after administration of test compound 120 minutes: baseline 100, control 114.4; for Change in intracranial pressure (%), time after administration of test compound 180 minutes: baseline 100, control 110.7. The series is classed as in vivo, Male SD-rats. As to the method:
(Effect of i.v. injection of test compounds on intracranial pressure in rats) Male SD-rats weighing 500 to 800 g (each group consisting of 5 rats) were anesthetized with urethane. A solution of a test compound in an aqueous 5 w/v % mannitol solution was infused via the femoral vein at a rate of 0.2 ml/kg/minute for 20 minutes (when the test compound was used in the form of free base, said solution was prepared by dissolving it in an aqueous 5 w/v % mannitol solution with the aid of 0.5 N hydrochloric acid). Intracranial pressure (i.e., cerebrospinal fluid pressure in the cisterna magna) was continuously monitored via a cannula inserted in the cisterna magna. The cannula was connected to a transducer, and recording were made on graph paper. The effect of the test compound on the intracranial pressure was estimated in terms of the increase or decrease in intracranial pressure, which was calculated in accordance with the following formula: [formula]

Series [2] relates to apomorphine-induced cage climbing. Nature of the series: Anti-apomorphine activity in mice (Experiment 2 (3)). To be noted: Mus musculus, ip, apomorphine hydrochloride 2.5 mg/kg s.c., dose decreasing climbing mice by 50%. The series is classed as in vivo, male mice. The procedure: (§1) (Inhibitory effect of test compound on central nervous system in mice)
(§2) Inhibitory effect of test compound on central nervous system was examined by the following methods.
A solution or suspension of a test compound in water or an aqueous carboxymethylcellulose solution was administered intraperitoneally to male mice weighing 18 to 20 g (each group consisting of 5 mice). Thirty minutes after administration of the test compound, apomorphine hydrochloride (2.5 mg/kg) was administered subcutaneously to the mice, and the number of the mice which could climb a cage was examined. The 50% effective dose (ED50) of the test compound was estimated in terms of dose which is necessary to decrease the number of the medicated mice which could climb the cage by 50% of the number of a control group (i.e., non-medicated mice) which could climb the cage.

Series [3] is described as follows: Maximum tolerance dose in mice (Experiment 3). Set-up: species or system male mice. The following applies: mouse, in vivo, ip. The procedure:
As a result, the maximum tolerance doses of 1-[3-(4-acetamido-2-methoxyphenoxy)-n-propyl]-4-(3-fluorophenyl)-piperazine, 1-[3-(4-acetamido-2-methoxyphenoxy)-n-propyl]-4-(2-fluorophenyl)-piperazine and 1-[3-(4-ethoxycarbonylamino-2-methoxyphenoxy)-n-propyl]-4-phenyl-piperazine methanesulfonate were more than 300 mg/kg.

For series [4], the system named is spontaneous motor activity / central nervous system. The series is described as follows: Inhibitory effect on spontaneous motor activity in mice (Experiment 2 (1)). The series is classed as in vivo, male mice. The following applies: Mus musculus, ip, 0.5 h, i.p., 30 minutes after administration, dose decreasing motor activity by 50%. The procedure:
as §1, §2
A solution or suspension of a test compound in water or an aqueous carboxymethylcellulose solution was administered intraperitoneally to male mice weighing 18 to 20 g (each group consisting of 5 mice). Thirty minutes after administration of the test compound, the spontaneous motor activity of the mice was measured with an animex activity meter for 5 minutes. The 50% effective dose (ED50) of the test compound was estimated in terms of dose which is necessary to decrease the motor activity of the medicated mice by 50% of that of a control group (i.e., non-medicated mice).

Read-outs that look alike come from different tables or passages of the source.

Broadly, the ED50 is the dose that gives a 50% effect, or the effect in half of the subjects. Low values mean greater potency, high ones weaker potency.

For `COc1cc(N)ccc1OCCCN1CCN(c2ccccc2)CC1` [NO. 5 (Table 1)], in series [1], the “Change in intracranial pressure (%), time after administration of test compound 40 minutes” value is listed as 79.1%; the “Change in intracranial pressure (%), time after administration of test compound 60 minutes” value is 77.0%; the “Change in intracranial pressure (%), time after administration of test compound 120 minutes” value came to 75.0%; the “Change in intracranial pressure (%), time after administration of test compound 180 minutes” value turned out to be 75.6%.
For `COc1cc(NC(C)=O)ccc1OCCCCN1CCN(c2ccccc2F)CC1` [NO. 3 (Table 1)], in series [1], the “Change in intracranial pressure (%), time after administration of test compound 40 minutes” value turned out to be 86.6%; the “Change in intracranial pressure (%), time after administration of test compound 60 minutes” value came to 91.9%; the “Change in intracranial pressure (%), time after administration of test compound 120 minutes” value is 85.7%; the “Change in intracranial pressure (%), time after administration of test compound 180 minutes” value stood at 84.6%.
For `COc1cc(NC(=O)C2CC2)ccc1OCCCN1CCN(c2ccccc2)CC1` [NO. 10 (Table 1), 1-[3-(4-cyclopropylcarbonylamino-2-methoxyphenoxy)-n-propyl]-4-phenyl-piperazine], in that order: 85.9%, 84.3%, 83.6% and 86.2%.
`COc1cc(NC(C)=O)ccc1OCCCN1CCN(c2ccccc2F)CC1` [NO. 2 (Table 4)] gave an ED50 in series [2] of 2.8 mg/kg.
Take `COc1cc(NC(=O)C(C)C)ccc1OCCCN1CCN(c2ccccc2)CC1` [NO. 8 (Table 1), 1-[3-(4-isobutyrylamino-2-methoxyphenoxy)-n-propyl]-4-phenyl-piperazine]: in series [1], the “Change in intracranial pressure (%), time after administration of test compound 40 minutes” value is reported as 83.3%; the “Change in intracranial pressure (%), time after administration of test compound 60 minutes” value came to 85.4%; the “Change in intracranial pressure (%), time after administration of test compound 120 minutes” value came out at 85.1%; the “Change in intracranial pressure (%), time after administration of test compound 180 minutes” value stood at 87.1%.
The corresponding values for `COc1cc(NC(=O)C=C(C)C)ccc1OCCCN1CCN(c2ccccc2)CC1` [NO. 12 (Table 1), 1-{3-[4-((2-methyl-1-propenyl)carbonylamino)-2-methoxyphenoxy]-n-propyl}-4-phenylpiperazine] are 76.7%, 84.3%, 91.9% and 93.5%.
For `COc1cc(NC(=O)C(C)(C)C)ccc1OCCCN1CCN(c2ccccc2)CC1` [NO. 9 (Table 1), 1-[3-(4-t-butylcarbonylamino-2-methoxyphenoxy)-n-propyl]-4-phenyl-piperazine], in that order: 84.1%, 84.9%, 84.9% and 87.4%.
With `COc1cc(NC(C)C(=O)O)ccc1OCCCN1CCN(c2ccccc2)CC1.Cl` (centres unmarked) [NO. 6 (Table 1), 1-{3-[4-(1-carboxyethylamino)-2-methoxyphenoxy]-n-propyl}-4-phenylpiperazine hydrochloride], in series [1], the “Change in intracranial pressure (%), time after administration of test compound 40 minutes” value is on record as 81.5%; the “Change in intracranial pressure (%), time after administration of test compound 60 minutes” value came to 86.2%; the “Change in intracranial pressure (%), time after administration of test compound 120 minutes” value is 96.2%; the “Change in intracranial pressure (%), time after administration of test compound 180 minutes” value was 99.0%.
The corresponding values for `COc1cc(NC=O)ccc1OCCCN1CCN(c2ccccc2)CC1` [NO. 7 (Table 1), 1-[3-(4-formylamino-2-methoxphenoxy)-n-propyl]-4-phenyl-piperazine] are 84.1%, 83.5%, 83.5% and 81.9%.
The corresponding values for `COc1cc(NC(=O)OC(C)(C)C)ccc1OCCCN1CCN(c2ccccc2)CC1` [NO. 14 (Table 1), 1-[3-(4-t-butoxycarbonylamino-2-methoxyphenoxy)-n-propyl]-4-phenyl-piperazine] are 78.9%, 77.7%, 80.3% and 81.6%.
For `COc1cc(NC(=O)C2CCCCC2)ccc1OCCCN1CCN(c2ccccc2)CC1` [NO. 11 (Table 1), 1-[3-(4-cyclohexylcarbonylamino-2-methoxyphenoxy)-n-propyl]-4-phenyl-piperazine], in that order: 91.1%, 94.3%, 78.7% and 78.8%.
For `COc1cc(NC(C)=O)ccc1OCCCN1CCN(c2ccccc2F)CC1` [Example 7, 1-[3-(4-acetamido-2-methoxyphenoxy)-n-propyl]-4-(2-fluorophenyl)-piperazine], the MTD at 72 h in series [3] is more than 300 mg/kg.
As to `CCOC(=O)Nc1ccc(OCCCN2CCN(c3ccccc3)CC2)c(OC)c1` [NO. 3 (Table 4)], the ED50 in series [2] came out at 3 mg/kg.
For `COc1cc(NC(C)=O)ccc1OCCCN1CCN(c2cccc(F)c2)CC1` [Example 5, 1-[3-(4-acetamido-2-methoxyphenoxy)-n-propyl]-4-(3-fluorophenyl)-piperazine], in series [1] (femoral vein infusion, dose 1 mg/kg, 40 minutes after administration), the “decrease in the intracranial pressure” value is listed as “about 27%”. The same compound registered an MTD at 72 h in series [3] of more than 300 mg/kg.
In turn, `COc1cc(N)ccc1OCCCN1CCN(c2ccccc2)CC1` [NO. 5 (Table 2), 1-[3-(4-amino-2-methoxyphenoxy)-n-propyl]-4-phenyl-piperazine] returned an ED50 in series [4] of 0.7 mg/kg.
Turning to `CCOC(=O)Nc1ccc(OCCCN2CCN(c3ccccc3)CC2)c(OC)c1.CS(=O)(=O)O` [Example 21 methanesulfonate, 1-[3-(4-ethoxycarbonylamino-2-methoxyphenoxy)-n-propyl]-4-phenyl-piperazine methanesulfonate], in series [1], the “Change in intracranial pressure (%), time after administration of test compound 40 minutes” value was found to be 79.7%; the “Change in intracranial pressure (%), time after administration of test compound 60 minutes” value was found to be 79.3%; the “Change in intracranial pressure (%), time after administration of test compound 120 minutes” value was determined as 79.2%; the “Change in intracranial pressure (%), time after administration of test compound 180 minutes” value is 82.2%. Besides, the MTD at 72 h in series [3] (mice, i.p., observed for 72 hours, read-out: maximum tolerance dose) was more than 300 mg/kg.
For `CCNc1ccc(OCCCN2CCN(c3ccccc3)CC2)c(OC)c1.Cl` [NO. 4 (Table 1), 1-[3-(4-ethylamino-2-methoxyphenoxy)-n-propyl]-4-phenyl-piperazine hydrochloride], in series [1], the “Change in intracranial pressure (%), time after administration of test compound 40 minutes” value was determined as 83.9%; the “Change in intracranial pressure (%), time after administration of test compound 60 minutes” value is given as 81.1%; the “Change in intracranial pressure (%), time after administration of test compound 120 minutes” value is 86.8%; the “Change in intracranial pressure (%), time after administration of test compound 180 minutes” value is given as 91.3%.
On to `COc1cc(NC(C)=O)ccc1OCCCN1CCN(c2ccccc2F)CC1` [NO. 4 (Table 2)], for which the ED50 in series [4] was 0.5 mg/kg.
